Data published in patent publication US20090093499A1, “Pharmaceutical composition” (LEK PHARMACEUTICALS D.D., priority 2005, published 2009).

Test: Stress stability of the bulk agent and its mixtures with excipients (degradation products by HPLC)
Type: physicochemical
Procedure: The bulk agent is subjected to stress conditions, such as elevated temperature (40° C. and above), elevated humidity (75% or higher relative humidity, open dish conditions), oxygen atmosphere or solutions with different pH. An HPLC analysis, capable of resolving the agent and its degradation products is then employed, to quantify the amount (given as a mass percentage relative to the agent) of degradation products in the stressed samples. Good chromatographic resolution can be achieved on a C18 reversed phase column with acidic phosphate buffer and an increasing gradient of acetonitrile and tetrahydrofuran. Degradation products are quantified using UV detection at 242 nm. The reporting limit of the degradation products has been set at 0.05%. The % reported for HPLC analysis are in general area %.

[1] = aqueous solution of the agent, buffered to pH = 5 at room temperature (24 hours)
[2] = under oxygen at 60° C. for 14 days

Substance: (E)-7-[4-(4-fluorophenyl)-6-isopropyl-2-[methyl(methylsulfonyl)amino]pyrimidin-5-yl]-(3R, 5S)-3,5-dihydroxyhept-6-enoic acid hemicalcium salt [the agent]
- amount of lactone (%) [1]: 2.30%
- amount of oxidation product (%) [1]: <0.05%
- amount of lactone (%) [2]: 0.17%
- amount of oxidation product (%) [2]: 0.71%
